# According to patent publication US20220296595A1, “CDK INHIBITORS” (QILU REGOR THERAPEUTICS INC., priority 2019, published 2022):
# pIC50: −log10 of the molar value. Read-outs that look alike come from different tables or passages of the source.
# Legend:
# CDK6/CyclinD3 = biological target: T1, CDK6/CyclinD3 (Homo sapiens, UniProt Q00534); assay: Assay for inhibition of CDK6/CyclinD3 (Caliper microfluidic kinase assay); assay type: biochemical
# T1 construct: purchased Carna 04-107
# Description: (§1) The CDK6 enzyme assay for IC50 determination was performed as follows. Microfluidic kinase detection technology (Caliper) was used to monitor the phosphorylation of peptide substrate by CDK6/CyclinD3. The total reaction volume is 15 μL containing buffer A (100 mM HEPES (pH 7.5), 0.1% BSA, 0.01% Triton X-100, 1 mM DTT, 10 mM MgCl2, 10 μM Sodium Orthovanadate, 10 μM Beta-Glycerophosphate), 300 μM ATP, 2 nM CDK6/CyclinD3 (Carna, 04-107), 1 μM FL-34 (5-FAM-[…]), and the test compound at appropriate dilutions in DMSO. All components were added to the 384-well plate (Corning, 4514), and incubated at Room Temperature for 3 hours. The reaction was terminated by addition of 15 μL Stop Buffer (180 mM HEPES (pH 7.5), 20 mM EDTA, Coating-3 reagent (PerkinElmer, 760050)). The plate was then loaded on Caliper EZ Reader (EZ Reader II, PerkinElmer, HD-4HYSG2772), and the reaction mixtures including substrate and product were sipped into the microfluidic chip for separation and detection. The IC50 values of the test compound were determined by fitting the inhibition curves by 4 parameter sigmoidal dose-response model using the Xlfit5/GraphPad Prism 5 software.
# CDK4/CyclinD1 = biological target: T2, CDK4/CyclinD1 (Homo sapiens, UniProt P11802); assay: Assay for inhibition of CDK4/CyclinD1 (Caliper microfluidic kinase assay); assay type: biochemical
# T2 construct: purchased Thermofisher PR8064A
# Description: as §1, with “The CDK4” for “The CDK6”, “by CDK4/CyclinD1.” for “by CDK6/CyclinD3.”, “volume was” for “volume is”, “Beta-Glycerophosphate), 200” for “Beta-Glycerophosphate), 300”, “ATP, 1” for “ATP, 2”, “nM CDK4/CyclinD1 (Thermofisher, PR8064A),” for “nM CDK6/CyclinD3 (Carna, 04-107),”
# CDK2/CyclinE1 = biological target: T3, CDK2/CyclinE1 (Homo sapiens, UniProt P24941); assay: Assay for inhibition of CDK2/CyclinE1 (Caliper microfluidic kinase assay); assay type: biochemical; details: read-out: CDK2 IC50
# T3 construct: purchased SignalChem C29-18G
# Description: The CDK2 enzyme assay for IC50 determination was performed as follows. Microfluidic kinase detection technology (Caliper) was used to monitor the phosphorylation of peptide substrate by CDK2/CyclinE1. The total reaction volume was 15 μL containing buffer A (100 mM HEPES (pH 7.5), 0.1% BSA, 0.01% Triton X-100, 1 mM DTT, 10 mM MgCl2, 10 μM Sodium Orthovanadate, 10 μM Beta-Glycerophosphate), 100 μM ATP, 5 nM CDK2/CyclinE1 (SignalChem, C29-18G), 5 μM FL-18 (5-FAM-QSPKKG-NH2), and the test compound at appropriate dilutions in DMSO. All components were added to the 384-well plate (Corning, 4514), and incubate at Room Temperature for 3 hours. The reaction was terminated by addition of 15 μL Stop Buffer (180 mM HEPES (pH 7.5), 20 mM EDTA, Coating-3 reagent (PerkinElmer, 760050)). The plate was loaded on Caliper EZ Reader (EZ Reader II, PerkinElmer, HD-4HYSG2772), and the reaction mixtures including substrate and product were sipped into the microfluidic chip for separation and detection. The IC50 values of the test compound were determined by fitting the inhibition curves by 4 parameter sigmoidal dose-response model using the Xlfit5/GraphPad Prism 5 software.
# T47D breast cancer cells = assay: Anti-proliferation assay in T47D cell (Cyquant, day 6); assay type: cell-based, human; details: Homo sapiens, T47D, anti-proliferation, T47D cells; read-out: T47D IC50
# Excerpt: T47D is a human breast cancer cell line commonly used in biomedical research involving the hormonal expression of cancer cells. T47D cells are distinct from other human breast cancer cells in that their progesterone receptors (PR) are not regulated by estradiol, a hormone that is abundant within the cells themselves. T47D cells have been employed in studies of the effects of progesterone on breast cancer and the corresponding transcriptional regulation caused by introduced drugs. The cells have been noted to be extremely resistant to estrogens and antiestrogens.
# T47D breast cancer cells from American Type Culture Collection (ATCC, HTB-133) were plated at 3000 cells/well in 96-well plates, and were incubated in RPMI 1640 medium (Gibco, 31800105) with 10% Fetal Bovine Serum (FBS, Biowest, FB-1058) at 37° C., 5% CO2. After overnight incubation, baseline values were measured of the samples from one plate using Cyquant reagent (Invitrogen, C35011) following manufacturer's recommendations. Cells were incubated with the detection reagent for 1 hour at 37° C., and then the fluorescence was measured with excitation at 485 nm and emission at 535 nm using Spectra Max M5 (Molecular Devices, HD-4HYSG3196). Other plates were dosed with compounds at a ten-point dose concentration from 10 μM to 0.51 nM in a 3-fold dilution scheme. On day 6 after compound addition, Cyquant reagent was added and the fluorescence was measured using Spectra Max M5. The IC50 values of the test compound's anti-proliferation activity were determined from the baseline subtracted viability readout curve using Xlfit5/GraphPad Prism 5 software.
# T2 sequence (P11802 whole entry): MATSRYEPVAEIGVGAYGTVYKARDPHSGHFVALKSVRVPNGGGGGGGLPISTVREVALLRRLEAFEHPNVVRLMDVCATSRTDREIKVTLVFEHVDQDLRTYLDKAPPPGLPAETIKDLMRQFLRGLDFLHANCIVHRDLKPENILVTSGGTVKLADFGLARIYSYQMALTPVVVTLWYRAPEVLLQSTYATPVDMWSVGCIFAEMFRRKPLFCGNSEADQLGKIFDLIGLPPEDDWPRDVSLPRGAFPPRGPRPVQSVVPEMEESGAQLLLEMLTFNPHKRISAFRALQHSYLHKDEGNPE
# T2 sequence (P24385 whole entry partner): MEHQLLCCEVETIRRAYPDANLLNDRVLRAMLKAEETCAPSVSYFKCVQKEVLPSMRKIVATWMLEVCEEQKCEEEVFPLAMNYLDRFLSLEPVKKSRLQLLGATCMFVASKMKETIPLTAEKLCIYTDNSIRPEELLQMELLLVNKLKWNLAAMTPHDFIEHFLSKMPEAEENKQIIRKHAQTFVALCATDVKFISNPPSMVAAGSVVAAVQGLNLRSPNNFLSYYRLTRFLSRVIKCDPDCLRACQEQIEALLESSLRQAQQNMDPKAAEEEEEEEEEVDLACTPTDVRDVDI
# T1 sequence (Q00534 whole entry): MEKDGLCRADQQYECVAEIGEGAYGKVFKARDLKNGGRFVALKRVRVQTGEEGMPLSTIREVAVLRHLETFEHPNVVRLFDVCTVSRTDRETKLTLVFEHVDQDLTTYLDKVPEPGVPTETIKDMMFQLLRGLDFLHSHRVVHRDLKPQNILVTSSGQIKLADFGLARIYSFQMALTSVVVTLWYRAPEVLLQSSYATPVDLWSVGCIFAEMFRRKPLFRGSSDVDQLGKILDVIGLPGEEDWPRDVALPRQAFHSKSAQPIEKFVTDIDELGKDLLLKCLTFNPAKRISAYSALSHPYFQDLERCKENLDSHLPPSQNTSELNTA
# T1 sequence (P30281 whole entry partner): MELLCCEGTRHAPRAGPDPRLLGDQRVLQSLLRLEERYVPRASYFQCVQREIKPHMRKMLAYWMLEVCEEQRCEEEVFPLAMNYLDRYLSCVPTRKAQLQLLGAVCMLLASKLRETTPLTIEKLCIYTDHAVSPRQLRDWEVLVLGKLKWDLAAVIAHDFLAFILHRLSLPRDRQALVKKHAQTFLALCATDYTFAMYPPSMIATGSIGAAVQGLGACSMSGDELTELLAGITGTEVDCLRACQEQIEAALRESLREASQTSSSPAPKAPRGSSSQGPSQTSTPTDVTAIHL
SMILES,"pIC50 (CDK6/CyclinD3; CDK6/CyclinD3, 300 μM ATP)","pIC50 (CDK4/CyclinD1; CDK4/CyclinD1, 200 μM ATP)","pIC50 (CDK2/CyclinE1; CDK2/CyclinE1, 100 μM ATP)",pIC50 (T47D breast cancer cells),further results
"C=CC(=O)Nc1cc(Nc2ncc(F)c(-c3ccn4nc(C)c(C)c4c3)n2)c(OC)cc1N(C)CCN(C)C [Compound 10 disclosed in CN109503573A, reference compound]",–,–,–,–,pIC50 (CDK6/CyclinD3; comparative compound): < 5.00; pIC50 (CDK4/CyclinD1; comparative compound): < 5.00
CCN1CCN(Cc2cccc(Nc3ncc(F)c(-c4ccn5ncc(C(C)C)c5c4)n3)n2)CC1 [compound 24],< 6.00,6.00 to 7.00,–,–,–
O=C1COCCN1c1ccc(Nc2ncc(F)c(-c3ccn4ncc(C5=CCOCC5)c4c3)n2)nc1 [compound 17],6.00 to 7.00,7.00 to 8.00,–,–,–
COc1nc(-c2nc(Nc3ccc(N4CCN(CCS(C)(=O)=O)CC4=O)cn3)ncc2F)cc2c1nc(C)n2C(C)C [Synthetic Example 121],7.00 to 8.00,> 8.00,< 6.00,–,–
CCN1CCN(Cc2ccc(Nc3ncc(F)c(-c4cc5c(nc(C)n5C(C)C)c(OC)n4)n3)nc2)CC1 [compound 95],–,–,–,–,pIC50 (CDK6/CyclinD3; CDK6/CyclinD3): 7.00 to 8.00; pIC50 (CDK4/CyclinD1; CDK4/CyclinD1): 7.00 to 8.00; pIC50 (CDK2/CyclinE1; CDK2/CyclinE1): < 6.00
CCN1CCN(Cc2ccc(Nc3ncc(F)c(-c4ccn5ncc(C(C)C)c5c4)n3)nc2)CC1 [compound 22],7.00 to 8.00,> 8.00,–,–,–
C=C(C)c1cnn2ccc(-c3nc(Nc4ccc(CN5CCN(CC)CC5)cn4)ncc3F)cc12 [compound 19],6.00 to 7.00,7.00 to 8.00,–,–,–
CCN1CCN(Cc2ccc(Nc3ncc(F)c(-c4ccn5ncc(Br)c5c4)n3)nc2)CC1 [compound 20],< 6.00,6.00 to 7.00,–,–,–
COc1nc(-c2nc(Nc3ccc(CN4CCN5CCCC5C4)cn3)ncc2F)cc2c1nc(C)n2C(C)C (centres unmarked) [compound 101],–,–,–,–,pIC50 (CDK6/CyclinD3; CDK6/CyclinD3): 7.00 to 8.00; pIC50 (CDK4/CyclinD1; CDK4/CyclinD1): 7.00 to 8.00
CC(C)c1cnn2ccc(-c3ccnc(Nc4ccc(N5CCNCC5=O)nc4)n3)cc12 [compound 35],7.00 to 8.00,–,–,–,–
CCN1CCN(Cc2ccc(Nc3ncc(F)c(-c4cn5c(C(C)C)cnc5c(OC)n4)n3)nc2)CC1 [Synthetic Example 60],6.00 to 7.00,7.00 to 8.00,–,–,–
CC(C)n1cnc2c(F)nc(-c3ccnc(Nc4ccc(N5CCCC(N)C5=O)cc4F)n3)cc21 (centres unmarked) [compound 306],–,> 8.00,7.00 to 8.00,> 7.00,–
"Cc1nc2c(F)nc(-c3ccnc(Nc4ccc(N5CCCC(N(C)C)C5=O)cn4)n3)cc2n1C(C)C (single isomer, unassigned) [Synthetic Example 302, 3-(dimethylamino)-1-[6-[[4-(4-fluoro-1-isopropyl-2-methyl-imidazo[4,5-c]pyridin-6-yl)pyrimidin-2-yl]amino]-3-pyridyl]piperidin-2-one]",–,> 8.00,< 6.00,> 7.00,–
CCN1CCC(Cn2ccc(Nc3nccc(-c4cc5c(ncn5C(C)C)c(OC)n4)n3)n2)CC1 [compound 135],–,7.00 to 8.00,< 6.00,6.30 to 7.00,–
CC(C)n1cnc2c1CN(c1nc(Nc3ccc(N4CCCC(N)C4=O)cc3)ncc1F)CC2 (centres unmarked) [compound 247],–,> 8.00,7.00 to 8.00,> 7.00,–
CC(C)n1cnc2c1CN(c1nc(Nc3ccc(N4CCOCC4=O)cn3)ncc1F)CC2 [compound 239],–,> 8.00,7.00 to 8.00,6.30 to 7.00,–
CNC1CCCN(c2ccc(Nc3ncc(F)c(N4CCc5ncn(C(C)C)c5C4)n3)cc2)C1=O (centres unmarked) [compound 248],–,> 8.00,7.00 to 8.00,> 7.00,–
CC(C)n1cnc2c1CN(c1nc(Nc3ccc(N4CCCNC4=O)cc3)ncc1F)CC2 [compound 253],–,> 8.00,7.00 to 8.00,> 7.00,–
CC(C)N1CCN(c2ccc(Nc3ncc(F)c(N4CCc5ncn(C(C)C)c5C4)n3)nc2)CC1 [compound 250],–,> 8.00,6.00 to 7.00,> 7.00,–
CC(C)n1cnc2c(F)nc(-c3ccnc(Nc4ccc(N5CCN(C(C)(C)C)CC5)cn4)n3)cc21 [compound 308],–,> 8.00,6.00 to 7.00,> 7.00,–

# Now from value to compound, other results behind:
"pIC50 (CDK6/CyclinD3; CDK6/CyclinD3, 300 μM ATP)","pIC50 (CDK4/CyclinD1; CDK4/CyclinD1, 200 μM ATP)","pIC50 (CDK2/CyclinE1; CDK2/CyclinE1, 100 μM ATP)",pIC50 (T47D breast cancer cells),SMILES,further results
7.00 to 8.00,> 8.00,> 8.00,–,CC(C)n1cnc2c(F)nc(-c3ccnc(Nc4ccc(S(N)(=O)=O)cc4)n3)cc21 [compound 297],–
> 8.00,> 8.00,7.00 to 8.00,–,CC(C)c1cnn2ccc(-c3ccnc(Nc4ccc(N5CCC(N(C)C)CC5=O)cn4)n3)cc12 (centres unmarked) [Synthetic Example 16],–
> 8.00,> 8.00,> 8.00,–,Cc1nn2ccc(-c3ccnc(Nc4ccc(N5CCC(N(C)C)CC5=O)cc4)n3)cc2c1C(C)C (centres unmarked) [compound 177],–
> 8.00,> 8.00,> 8.00,–,CC(C)n1cnc2c(F)nc(-c3ccnc(Nc4ccc(N5CCC(C)(N)CC5=O)cc4F)n3)cc21 (centres unmarked) [compound 292],–
–,6.00 to 7.00,7.00 to 8.00,6.00 to 6.30,CC(C)c1cnn2ccc(-c3nc(Nc4ccc(S(C)(=O)=O)cc4)ncc3F)cc12 [compound 6],–
–,> 8.00,< 6.00,> 7.00,CNC1CCCN(c2ccc(Nc3nccc(-c4ccn5ncc(C(C)(C)C)c5c4)n3)nc2)C1=O (centres unmarked) [compound 221],–
–,> 8.00,7.00 to 8.00,> 7.00,CC(C)n1cnc2c(F)nc(-c3ccnc(Nc4ccc(N5CCCC(N(C)C)C5=O)cc4)n3)cc21 (centres unmarked) [compound 304],–
–,> 8.00,7.00 to 8.00,> 7.00,CC(C)n1cnc2c(F)nc(-c3ccnc(Nc4ccc(N5CCC(N(C)C)C5=O)cc4)n3)cc21 (centres unmarked) [compound 268],–
–,> 8.00,7.00 to 8.00,> 7.00,CNC1CCCN(c2ccc(Nc3nccc(-c4ccn5ncc(C(C)C)c5c4)n3)cn2)C1=O (centres unmarked) [compound 185],–
–,> 8.00,7.00 to 8.00,> 7.00,CC(C)(C)c1cnn2ccc(-c3ccnc(Nc4ccc(N5CCCC(N)C5=O)cn4)n3)cc12 (centres unmarked) [compound 220],–
–,–,–,6.30 to 7.00,CC(C)n1cnc2c(OC(F)F)nc(-c3ccnc(Nc4ccc(N5CCC(N(C)C)CC5=O)cn4)n3)cc21 (centres unmarked) [compound 64],pIC50 (CDK4/CyclinD1; CDK4/CyclinD1): > 8.00; pIC50 (CDK2/CyclinE1; CDK2/CyclinE1): < 6.00
–,> 8.00,7.00 to 8.00,6.30 to 7.00,CC(C)c1cnn2ccc(-c3nc(Nc4ccc(N5CCN(CCF)CCC5=O)cn4)ncc3F)cc12 [compound 54],–
